The source of these data is US12612622B2, “Targeted mutagenesis using base editors” (Qi Biodesign Biotechnology Company Limited, priority 2018, dated 2026).

The subject of this series is OsACCase gene. Nature of the series: Base editing (pZRH-PBE + individual sgRNAs) of OsACCase functional domain in transgenic M0 rice plants. The conditions noted are these: for Frequency of indel (%) / Frequency of substitution (%) / No. of WT / No. of indel / No. of substitution: transgenic M0 plants; for No. of WT / No. of indel / No. of substitution: per sgRNA target. It counts as in vivo. An excerpt:
For individual cloning, the following method is used. APOBEC1, partial nCas9 and UGI sequences (SEQ ID NO: 129) without BsaI were synthesized commercially (GenScript, Nanjing, China) and cloned into the pUC57 (SEQ ID NO: 130) as intermediate vector. […] The full length APOBEC1-nCas9-UGI was excised using XmaJI and SacI, then was subcloned into pHUE411 that had been digested using the same two enzymes. The resultant vector pZRH-PBE (SEQ ID NO: 133) was used to construct sgRNA expression plasmids using restriction enzyme site BsaI.

Setting [1] is: edited allele with the substitution of the same table line.

On to “R26: sgRNA in pZRH-PBE; OsACCase target site AACAACACCGTTGGACCCACCGG (SEQ ID NO: 88) (expressed or natural sequence; target site or template, no part of the molecule)”, for which the “Frequency of indel (%)” value is listed as 0.0%, the “Frequency of substitution (%)” value turned out to be 71.4%, the “No. of WT” value amounted to 2 and the No. of indel is 0. Moreover, the No. of substitution was 5. Moreover, the No. of alleles under setting [1] is given as 4. Besides, where the note is “unedited target site sequence”, the No. of alleles turned out to be 4.
With “R18: sgRNA in pZRH-PBE; OsACCase target site CCGCAAGGGTTAATTGAGATCAA (SEQ ID NO: 68) (expressed or natural sequence; target site or template, no part of the molecule)”, the “Frequency of indel (%)” value is recorded as 13.0%, the “Frequency of substitution (%)” value was 60.9%, the “No. of WT” value came to 6 and the No. of indel stood at 3. Besides, the No. of substitution came out at 14. For the setting “unedited target site sequence”, the No. of alleles was found to be 7.
Take “R30: sgRNA in pZRH-PBE; OsACCase target site ATGGCTGCAGAGCTACGAGGAGG (SEQ ID NO: 99) (expressed or natural sequence; target site or template, no part of the molecule)”: the “Frequency of indel (%)” value stood at 12.5%, the “Frequency of substitution (%)” value worked out at 56.3%, the “No. of WT” value is on record as 5 and the No. of indel is 2. For the same substance, the No. of substitution is 9. Where the note is “unedited target site sequence”, the No. of alleles worked out at 5.
Consider “R32: sgRNA in pZRH-PBE; OsACCase target site CCCAGACCGCATTGAGTGCTATG (SEQ ID NO: 104) (expressed or natural sequence; target site or template, no part of the molecule)”, for which the “Frequency of indel (%)” value is 10.5%, the “Frequency of substitution (%)” value amounted to 21.1%, the “No. of WT” value is 13 and the No. of indel is 2. The No. of substitution was 4. The No. of alleles under setting [1] was found to be 1. Under “unedited target site sequence”, the No. of alleles is 2.
Turning to “R20: sgRNA in pZRH-PBE; OsACCase target site TTTACACTTACATTTGTGACTGG (SEQ ID NO: 73) (expressed or natural sequence; the letters are possibly those of the target site)”, the “Frequency of indel (%)” value is 0.0%, the “Frequency of substitution (%)” value came out at 16.7%, the “No. of WT” value is reported as 11 and the No. of indel came out at 0. In addition, the No. of substitution was found to be 2. The No. of alleles under setting [1] was 1. The No. of alleles (unedited target site sequence) is 2.
In the case of “R27: sgRNA in pZRH-PBE; OsACCase target site GAACTCGTGTGATCCTCGAGCGG (SEQ ID NO: 90) (chemistry not fully specified; the letters are possibly those of the target site)”, the “Frequency of indel (%)” value came to 0.0%, the “Frequency of substitution (%)” value turned out to be 15.4%, the “No. of WT” value worked out at 11 and the No. of indel is 0. Besides, the No. of substitution turned out to be 2. Under setting [1], the No. of alleles is 3. In addition, where the note is “unedited target site sequence”, the No. of alleles is on record as 1.
Consider “R33: sgRNA in pZRH-PBE; OsACCase target site CCTTTGTCTACATTCCCATGGCT (SEQ ID NO: 107) (expressed or natural sequence; target site or template, no part of the molecule)”, for which the “Frequency of indel (%)” value amounted to 5.9%, the “Frequency of substitution (%)” value came out at 41.2%, the “No. of WT” value is 9 and the No. of indel is given as 1. Also, the No. of substitution is 7. Moreover, the No. of alleles under setting [1] was 1. Moreover, the No. of alleles (unedited target site sequence) was 1.
“R28: sgRNA in pZRH-PBE; OsACCase target site GTTACTGGCAGAGCAAAGCTTGG (SEQ ID NO: 92) (expressed or natural sequence; target site or template, no part of the molecule)”: the “Frequency of indel (%)” value worked out at 14.3%, the “Frequency of substitution (%)” value came out at 42.9%, the “No. of WT” value came to 3 and the No. of indel came out at 1. For the same substance, the No. of substitution amounted to 3. For the same substance, the No. of alleles under setting [1] is on record as 6. In addition, the No. of alleles (unedited target site sequence) came out at 0.
Turning to “R34: sgRNA in pZRH-PBE; OsACCase target site CCAGTGGGTGTGATAGCTGTGGA (SEQ ID NO: 109) (expressed or natural sequence; the letters are possibly those of the target site)”, the “Frequency of indel (%)” value stood at 0.0%, the “Frequency of substitution (%)” value came to 71.4%, the “No. of WT” value is on record as 4 and the No. of indel is given as 0. In addition, the No. of substitution is listed as 10. For the same substance, the No. of alleles (edited allele with the substitution of the same table line, edited allele (SEQ ID NO: 110)) worked out at 3. Besides, for the setting “edited allele with the substitution of the same table line, edited allele (SEQ ID NO: 111)”, the No. of alleles is listed as 2. For the same substance, for the setting “edited allele with the substitution of the same table line, edited allele (SEQ ID NO: 112)”, the No. of alleles came to 4. Under “unedited target site sequence”, the No. of alleles is 7.
As to “R36: sgRNA in pZRH-PBE; OsACCase target site CCTCGAGCGGCTATCCGTGGTGT (SEQ ID NO: 115) (expressed or natural sequence; the letters are possibly those of the target site)”, the “Frequency of indel (%)” value was 0.0%, the “Frequency of substitution (%)” value is given as 35.7%, the “No. of WT” value stood at 9 and the No. of indel is listed as 0. Also, the No. of substitution was 5. The No. of alleles under setting [1] turned out to be 1. The No. of alleles (unedited target site sequence) stood at 3.
“R6: sgRNA in pZRH-PBE; OsACCase target site CCATCTTACTGTTTCAGATGACC (SEQ ID NO: 22) (expressed or natural sequence; target site or template, no part of the molecule)”: the “Frequency of indel (%)” value turned out to be 14.3%, the “Frequency of substitution (%)” value is recorded as 19%, the “No. of WT” value was found to be 14 and the No. of indel came out at 3. For the same substance, the No. of substitution is given as 4. Further, the No. of alleles (unedited target site sequence) is listed as 2.
Consider “R17: sgRNA in pZRH-PBE; OsACCase target site GGAGCTTATCTTGCTCGACTTGG (SEQ ID NO: 64) (expressed or natural sequence; target site or template, no part of the molecule)”, for which the “Frequency of indel (%)” value came out at 4.8%, the “Frequency of substitution (%)” value stood at 42.9%, the “No. of WT” value is reported as 22 and the No. of indel is 2. Besides, the No. of substitution amounted to 18. Under “unedited target site sequence”, the No. of alleles amounted to 16.
In the case of “R24: sgRNA in pZRH-PBE; OsACCase target site TATGTTCCTGCCTACATTGGTGG (SEQ ID NO: 83) (expressed or natural sequence; target site or template, no part of the molecule)”, the “Frequency of indel (%)” value was 14.3%, the “Frequency of substitution (%)” value is 9.5%, the “No. of WT” value is 16 and the No. of indel is reported as 3. The No. of substitution is 2. For the same substance, under setting [1], the No. of alleles amounted to 2. Also, the No. of alleles (unedited target site sequence) was found to be 2.
For the substance “R39: sgRNA in pZRH-PBE; OsACCase target site CCGTTGGACCCACCGGACAGACC (SEQ ID NO: 125) (expressed or natural sequence; target site or template, no part of the molecule)”, the “Frequency of indel (%)” value is 50.0%, the “Frequency of substitution (%)” value is 25.0%, the “No. of WT” value was found to be 1 and the No. of indel was 2. Moreover, the No. of substitution is listed as 1. Moreover, under setting [1], the No. of alleles is 1. For the same substance, the No. of alleles (unedited target site sequence) came out at 1.
For “R21: sgRNA in pZRH-PBE; OsACCase target site AGCTCCCACATGCAGTTGGGTGG (SEQ ID NO: 76) (expressed or natural sequence; target site or template, no part of the molecule)”, the “Frequency of indel (%)” value was found to be 9.5%, the “Frequency of substitution (%)” value was 23.8%, the “No. of WT” value is recorded as 14 and the No. of indel is reported as 2. The No. of substitution was determined as 5. Further, the No. of alleles (edited allele with the substitution of the same table line, edited allele (SEQ ID NO: 77)) is 2. Moreover, the No. of alleles (edited allele with the substitution of the same table line, edited allele (SEQ ID NO: 78)) came out at 4. Also, for the setting “unedited target site sequence”, the No. of alleles is 4.
Turning to “R37: sgRNA in pZRH-PBE; OsACCase target site CCTGAGAACTCGTGTGATCCTCG (SEQ ID NO: 119) (expressed or natural sequence; target site or template, no part of the molecule)”, the “Frequency of indel (%)” value is 45.5%, the “Frequency of substitution (%)” value is reported as 18.2%, the “No. of WT” value was found to be 4 and the No. of indel is recorded as 5. The No. of substitution is 2. The No. of alleles (edited allele with the substitution of the same table line, edited allele (SEQ ID NO: 120)) came to 1. Where the note is “edited allele with the substitution of the same table line, edited allele (SEQ ID NO: 121)”, the No. of alleles is 2. Further, the No. of alleles (unedited target site sequence) stood at 1.
